Results taken from PMC7459655 (Biomedicines, 2020).
Where “and” joins values, the source holds several entries; their conditions need not be identical. Identical values can stand only once.

What was measured:
[1] = system: P. falciparum CQ-sensitive strain 3D7; assay: microbe, parasite or virus in culture; conditions: Plasmodium falciparum, 3D7, 72 h
[2] = system: P. falciparum CQ-sensitive strain 3D7
[3] = system: P. falciparum CQ-resistant strain Dd2
[4] = system: non-infected erythrocytes
in vitro = conditions: human
[5] = system: P. falciparum CQ-resistant strain Dd2; assay: microbe, parasite or virus in culture; conditions: Plasmodium falciparum, DD2, 72 h
[6] = system: leukemia cell line Nalm-6
[7] = system: P. falciparum gametocyte-producing strain NF54 gametocytes; format: cell-based, Plasmodium falciparum
[8] = system: P. falciparum mature gametocytes (male gametogenesis); format: cell-based, Plasmodium falciparum

CCCCCCCCCCCC[As](=O)(CCCCCCCCCCCC)CCCCCCCCCCCC [As-11]
IC50 [1]: 43 ± 5.7 µM | antiplasmodial activity against 3D7 (in words) [2]: higher micromolar ranges

c1ccc(-c2ccccc2[As]23(OCCO2)OCCO3)cc1 [As-4]
IC50 [1]: 8.64 ± 0.963 µM | IC90 [1]: 77.8 µM | SI (ratio of CC50 and IC50) [3]: >3 | antiplasmodial activity against Dd2 compared to 3D7 (in words) [3]: reduced antiplasmodial activities | hemolytic effect on erythrocytes (in words) [4]: no hemolytic effect | SI (ratio of CC50 and IC50) [2]: >12 | antiplasmodial activity against 3D7 (in words) [2]: lower micromolar ranges | CC50 (in vitro): > 100 µM | IC50 [5]: 30.1 ± 2.07 µM

O[As]12(OC(C(F)(F)F)(C(F)(F)F)c3ccccc31)OC(C(F)(F)F)(C(F)(F)F)c1ccccc12 [As-5]
IC50 [1]: 16.6 ± 3.09 µM | IC90 [1]: 149 µM | antiplasmodial activity against 3D7 (in words) [2]: higher micromolar ranges

Cc1ccc2ccccc2c1[As](=O)(O)c1c(C)ccc2ccccc12 [As-8]
IC50 [1]: 1.52 ± 0.089 µM | IC90 [1]: 13.7 µM | cytotoxic effect, LDH release (in words) [6]: No noticeable cytotoxic effect | reduction of gametocyte development (stage IV and V gametocytes) [7]: about 60% | SI (ratio of CC50 and IC50) [3]: >286 | antiplasmodial activity against Dd2 compared to 3D7 (in words) [3]: increased activities | reduction in exflagellation (numbers of exflagellation centers) [8]: 67% and 87% | hemolytic effect on erythrocytes (in words) [4]: no hemolytic effect | SI (ratio of CC50 and IC50) [2]: >66 | antiplasmodial activity against 3D7 (in words) [2]: lower micromolar ranges | CC50 (in vitro): > 100 µM | IC50 [5]: 0.35 ± 0.099 µM | IC90 [5]: 3.15 µM

CC(C)[C@H]1COC(c2ccccc2[As](c2ccccc2)c2ccccc2)=N1 [As-10]
IC50 [1]: 18.1 ± 3 µM | IC90 [1]: 163 µM | antiplasmodial activity against 3D7 (in words) [2]: higher micromolar ranges
